26 compounds from patent publication US20250074913A1, “PYRAZOLE DERIVATIVES AS STING AGONISTS” (Hoffmann-La Roche Inc., priority 2022, published 2025) can be followed below.

The experiment deals with interferon regulatory factor (IRF) pathway in THP1-Dual™ cells. Kind of experiment: THP1-Dual reporter gene assay (Agonist_THP1_EC50). It is filed as cell-based. The conditions noted are these: Homo sapiens, 20-24 hrs compound treatment, Lucia luciferase (IRF) readout. From the text: This is the cellular reporter assay to evaluate compounds' agonism to interferon regulatory factor (IRF) pathway in THP1-Dual™ cells (InvivoGen, cat number thpd-nfis). THP1-Dual™ cells were derived from the human THP-1 monocyte cell line by stable integration lucia luciferase gene, a new secreted luciferase reporter gene, under the control of an ISG54 (interferon-stimulated gene) minimal promoter in conjunction with five interferon (IFN)-stimulated response elements. As a result, THP1-Dual™ cells allow the study of the IRF pathway, by assessing the activity of Lucia luciferase. Lucia luciferase protein is readily measurable in the cell culture supernatant when using QUANTI-Luc™ (InvivoGen, cat: rep-qlcg-500).
After 20-24 hrs compound treatment in THP1-Dual cells, the compounds' agonism to IRF pathway and cell toxicity were tested by measuring luminescence and OD 450 on an Envision plate reader.
On the day of experiment, 30 μL of test medium (RPMI 1640, 2 mM L-glutamine, 25 mM HEPES, […] heat-inactivated fetal bovine serum) was dispensed in a white 384-well plate (Grenier, cat: 781098) containing the serially diluted compounds (final 1% DMSO) transferred by the Echo550 machine. Then 30 μL of cell suspension (˜33,000 cells, 1.1×10^6 cells/mL) per well was added immediately by thermo multidrop combi dispenser for incubation 20-24 h at 37° C., […]. At the end of the incubation, 10 μL of cellular supernatant was transferred to proxiplate 384-plus plate for IRF detection, and then 10 μL of QUANTI-Luc™ Gold solution was added to the plate that proceeded with the measurement immediately. To detect cell viability, 30 μL of the CCK-8 working solution (Dojindo Molecular Technologies, cat: CK04-20) was added to the cell plate, which was Incubated for 2 hrs in the incubator to measure the absorbance at 450 nm using Envision.
(In general: In a reporter assay the amount or activity of a reporter protein is the signal.)

For orientation: EC50 means the concentration needed to bring the measured effect to its halfway point. The low end stands for higher potency in that assay, the high end for lower potency in that assay. For `CCn1nc(C)c(O)c1-c1n[nH]c(-c2nc(C(N)=O)n3cc(C(F)F)ncc23)n1` [Example 26, 6-(difluoromethyl)-1-[3-(2-ethyl-4-hydroxy-5-methyl-pyrazol-3-yl)-1H-1,2,4-triazol-5-yl]imidazo[1,5-a]pyrazine-3-carboxamide], the EC50 is 0.34 µM. The same measure for `CCn1nc(C)c(O)c1-c1noc(-c2cc(C(N)=O)c3cc(C)ncn23)n1` [Example 27, 7-[3-(2-ethyl-4-hydroxy-5-methyl-pyrazol-3-yl)-1,2,4-oxadiazol-5-yl]-3-methyl-pyrrolo[1,2-c]pyrimidine-5-carboxamide]: 0.292 µM; for `CCn1nc(C)c(O)c1-c1nc(-c2c(F)c(C(N)=O)n3cc(C)ncc23)co1` [Example 28, 8-[2-(2-ethyl-4-hydroxy-5-methyl-pyrazol-3-yl)oxazol-4-yl]-7-fluoro-3-methyl-pyrrolo[1,2-a]pyrazine-6-carboxamide]: 0.134 µM.

In turn, `CCn1nc(C)c(O)c1-c1nc(-n2cc(C(N)=O)c3cc(C)ncc32)co1` [Example 29, 1-[2-(2-ethyl-4-hydroxy-5-methyl-pyrazol-3-yl)oxazol-4-yl]-5-methyl-pyrrolo[2,3-c]pyridine-3-carboxamide] gave an EC50 of 0.618 µM.

Turning to `Cc1cn2c(C(N)=O)c(F)c(-c3nc(-c4c(O)c(C)nn4CCC#N)n[nH]3)c2cn1` [Example 30, 8-[3-[2-(2-cyanoethyl)-4-hydroxy-5-methyl-pyrazol-3-yl]-1H-1,2,4-triazol-5-yl]-7-fluoro-3-methyl-pyrrolo[1,2-a]pyrazine-6-carboxamide], a half-maximal response (EC50) required 0.321 µM. The same measure for `Cc1cc2c(C(N)=O)nn(-c3nc(-c4c(O)c(C)nn4CC4CC4)n[nH]3)c2cn1` [Example 32, 1-[3-[2-(cyclopropylmethyl)-4-hydroxy-5-methyl-pyrazol-3-yl]-1H-1,2,4-triazol-5-yl]-5-methyl-pyrazolo[3,4-c]pyridine-3-carboxamide]: 0.036 µM; for `Cc1cc2c(C(N)=O)nn(-c3nc(-c4c(O)c(C)nn4C4CC4)n[nH]3)c2cn1` [Example 33, 1-[3-(2-cyclopropyl-4-hydroxy-5-methyl-pyrazol-3-yl)-1H-1,2,4-triazol-5-yl]-5-methyl-pyrazolo[3,4-c]pyridine-3-carboxamide]: 0.135 µM; for `Cc1nn(CCn2nccn2)c(-c2n[nH]c(-c3nc(C(N)=O)cc4c3cnn4C)n2)c1O` [Example 35, 4-[3-[4-hydroxy-5-methyl-2-[2-(triazol-2-yl)ethyl]pyrazol-3-yl]-1H-1,2,4-triazol-5-yl]-1-methyl-pyrazolo[4,3-c]pyridine-6-carboxamide]: 0.079 µM. The same measure for `Cc1nn(CCn2ccnn2)c(-c2n[nH]c(-c3nc(C(N)=O)cc4c3cnn4C)n2)c1O` [Example 36, 4-[3-[4-hydroxy-5-methyl-2-[2-(triazol-1-yl)ethyl]pyrazol-3-yl]-1H-1,2,4-triazol-5-yl]-1-methyl-pyrazolo[4,3-c]pyridine-6-carboxamide]: 0.24 µM. With `Cc1nn(CCC(F)F)c(-c2n[nH]c(-c3nc(C(N)=O)cc4c3cnn4C)n2)c1O` [Example 37, 4-[3-[2-(3,3-difluoropropyl)-4-hydroxy-5-methyl-pyrazol-3-yl]-1H-1,2,4-triazol-5-yl]-1-methyl-pyrazolo[4,3-c]pyridine-6-carboxamide] the figure was 0.014 µM. The compound `Cc1nn(CCn2cncn2)c(-c2n[nH]c(-c3nc(C(N)=O)cc4c3cnn4C)n2)c1O` [Example 39, 4-[3-[4-hydroxy-5-methyl-2-[2-(1,2,4-triazol-1-yl)ethyl]pyrazol-3-yl]-1H-1,2,4-triazol-5-yl]-1-methyl-pyrazolo[4,3-c]pyridine-6-carboxamide] gave a concentration giving a half-maximal response (EC50) of 0.225 µM. The same measure for `Cc1cc2c(C(N)=O)nn(-c3nc(-c4c(O)c(C)nn4CCCF)n[nH]3)c2cn1` [Example 41, 1-[3-[2-(3-fluoropropyl)-4-hydroxy-5-methyl-pyrazol-3-yl]-1H-1,2,4-triazol-5-yl]-5-methyl-pyrazolo[3,4-c]pyridine-3-carboxamide]: 0.048 µM; for `COCCn1nc(C)c(O)c1-c1n[nH]c(-n2nc(C(N)=O)c3cc(C)ncc32)n1` [Example 42, 1-[3-[4-hydroxy-2-(2-methoxyethyl)-5-methyl-pyrazol-3-yl]-1H-1,2,4-triazol-5-yl]-5-methyl-pyrazolo[3,4-c]pyridine-3-carboxamide]: 0.045 µM; for `CCCCn1nc(C)c(O)c1-c1n[nH]c(-n2nc(C(N)=O)c3cc(C)ncc32)n1` [Example 43, 1-[3-(2-butyl-4-hydroxy-5-methyl-pyrazol-3-yl)-1H-1,2,4-triazol-5-yl]-5-methyl-pyrazolo[3,4-c]pyridine-3-carboxamide]: 0.015 µM. Regarding `COCCCn1nc(C)c(O)c1-c1n[nH]c(-n2nc(C(N)=O)c3cc(C)ncc32)n1` [Example 44, 1-[3-[4-hydroxy-2-(3-methoxypropyl)-5-methyl-pyrazol-3-yl]-1H-1,2,4-triazol-5-yl]-5-methyl-pyrazolo[3,4-c]pyridine-3-carboxamide], the EC50 worked out at 0.046 µM. The same measure for `Cc1cc2c(C(N)=O)nn(-c3nc(-c4c(O)c(C)nn4CCc4ccncc4)n[nH]3)c2cn1` [Example 46, 1-[3-[4-hydroxy-5-methyl-2-[2-(4-pyridyl)ethyl]pyrazol-3-yl]-1H-1,2,4-triazol-5-yl]-5-methyl-pyrazolo[3,4-c]pyridine-3-carboxamide]: 0.097 µM; for `Cc1cc2c(C(N)=O)nn(-c3nc(-c4c(O)c(C)nn4CCc4cccnc4)n[nH]3)c2cn1` [Example 47, 1-[3-[4-hydroxy-5-methyl-2-[2-(3-pyridyl)ethyl]pyrazol-3-yl]-1H-1,2,4-triazol-5-yl]-5-methyl-pyrazolo[3,4-c]pyridine-3-carboxamide]: 0.033 µM; for `Cc1cc2c(C(N)=O)nn(-c3nc(-c4c(O)c(C)nn4CCc4ccccc4)nn3C)c2cn1` [Example 48, 1-[5-[4-hydroxy-5-methyl-2-(2-phenylethyl)pyrazol-3-yl]-2-methyl-1,2,4-triazol-3-yl]-5-methyl-pyrazolo[3,4-c]pyridine-3-carboxamide]: 0.064 µM.

Regarding `CCCCn1nc(C)c(O)c1-c1nc(-n2nc(C(N)=O)c3cc(C)ncc32)n(C)n1` [Example 49, 1-[5-(2-butyl-4-hydroxy-5-methyl-pyrazol-3-yl)-2-methyl-1,2,4-triazol-3-yl]-5-methyl-pyrazolo[3,4-c]pyridine-3-carboxamide], the EC50 came to 0.058 µM. With `COc1ccc(CCn2nc(C)c(O)c2-c2n[nH]c(-n3nc(C(N)=O)c4cc(C)ncc43)n2)cc1` [Example 50, 1-[3-[4-hydroxy-2-[2-(4-methoxyphenyl)ethyl]-5-methyl-pyrazol-3-yl]-1H-1,2,4-triazol-5-yl]-5-methyl-pyrazolo[3,4-c]pyridine-3-carboxamide] the figure was 0.025 µM; with `CC#CCCn1nc(C)c(O)c1-c1n[nH]c(-n2nc(C(N)=O)c3cc(C)ncc32)n1` [Example 51, 1-[3-(4-hydroxy-5-methyl-2-pent-3-ynyl-pyrazol-3-yl)-1H-1,2,4-triazol-5-yl]-5-methyl-pyrazolo[3,4-c]pyridine-3-carboxamide], 0.034 µM; with `COc1cccc(CCn2nc(C)c(O)c2-c2n[nH]c(-n3nc(C(N)=O)c4cc(C)ncc43)n2)c1` [Example 54, 1-[3-[4-hydroxy-2-[2-(3-methoxyphenyl)ethyl]-5-methyl-pyrazol-3-yl]-1H-1,2,4-triazol-5-yl]-5-methyl-pyrazolo[3,4-c]pyridine-3-carboxamide], 0.031 µM.

In the case of `Cc1cc2c(C(N)=O)nn(-c3nc(-c4c(O)c(C)nn4CCc4ccccc4F)n[nH]3)c2cn1` [Example 56, 1-[3-[2-[2-(2-fluorophenyl)ethyl]-4-hydroxy-5-methyl-pyrazol-3-yl]-1H-1,2,4-triazol-5-yl]-5-methyl-pyrazolo[3,4-c]pyridine-3-carboxamide], a half-maximal response (EC50) required 0.013 µM. Regarding `Cc1cn2c(C(N)=O)c(F)c(-c3nc(-c4c(O)c(C)nn4CCc4ccccc4)n[nH]3)c2cn1` [Example 57, 7-fluoro-8-[3-[4-hydroxy-5-methyl-2-(2-phenylethyl)pyrazol-3-yl]-1H-1,2,4-triazol-5-yl]-3-methyl-pyrrolo[1,2-a]pyrazine-6-carboxamide], it took 0.062 µM to reach a half-maximal effect (EC50). Turning to `Cc1cc2c(C(N)=O)nn(-c3nc(-c4c(O)c(C)nn4CCc4cccc(C#N)c4)n[nH]3)c2cn1` [Example 60, 1-[3-[2-[2-(3-cyanophenyl)ethyl]-4-hydroxy-5-methyl-pyrazol-3-yl]-1H-1,2,4-triazol-5-yl]-5-methyl-pyrazolo[3,4-c]pyridine-3-carboxamide], the EC50 was determined as 0.023 µM. `Cc1cc2c(C(N)=O)nn(-c3nc(-c4c(O)c(C)nn4CCc4ccc(C#N)cc4)n[nH]3)c2cn1` [Example 61, 1-[3-[2-[2-(4-cyanophenyl)ethyl]-4-hydroxy-5-methyl-pyrazol-3-yl]-1H-1,2,4-triazol-5-yl]-5-methyl-pyrazolo[3,4-c]pyridine-3-carboxamide] returned an EC50 of 0.047 µM.
